From ChEMBL document CHEMBL1136247, “Alpha-keto amides as inhibitors of histone deacetylase” (Bioorg Med Chem Lett, 2003)

Experiments:
[1] = target: Histone deacetylase (HDAC1 and HDAC2) (Homo sapiens, UniProt Q13547+Q92769); assay: Inhibitory activity against mixture of histone deacetylase 1 (HDAC1) and histone deacetylase 2 (HDAC2) from nuclear extraction of K562 erythroleukemia cells.
HT-1080 = assay: Compound was tested for inhibition of proliferation of HT1080 cells; assay type: functional, cell-based; settings: Homo sapiens
MDA-MB-435 = assay: Compound was tested for inhibition of proliferation of MDA-435 cells; assay type: functional, cell-based; settings: Homo sapiens

| Structure (SMILES) | IC50 [1] [nM] | IC50 (HT-1080) [nM] | IC50 (MDA-MB-435) [nM] |
| --- | --- | --- | --- |
| CNC(=O)C(=O)CCCCCCC(=O)Nc1cnc2ccccc2c1 | 9.5 | 2900 | 4000 |
| CNC(=O)C(=O)CCCCCCNC(=O)c1cccc(-c2ccccc2)c1 | 21 |  |  |
| CNC(=O)C(=O)CCCCCCC(=O)Nc1nc(-c2ccc3c(c2)CCCC3)cs1 | 1.4 | > 50000 | > 50000 |
| CNC(=O)C(=O)CCCCCCC(=O)Nc1nc(-c2ccc(OC)cc2)cs1 | 9.1 | 2700 | 5800 |
| CNC(=O)C(=O)CCCCCCC(=O)Nc1nc(-c2ccccc2)cs1 | 11 | 1200 | 3100 |
| CNC(=O)C(=O)CCCCCCC(=O)Nc1ccc2ccccc2c1 | 9.4 | 17000 | 22000 |
| CNC(=O)C(=O)CCCCCCNS(=O)(=O)c1ccc(-c2ccccc2)cc1 | 241 |  |  |
| CNC(=O)C(=O)CCCCCCOc1ccc(-c2ccccc2)cc1 | 0.11 |  |  |
| CNC(=O)C(=O)CCCCCCC(=O)Nc1ccc(-c2ccccc2)cc1 | 201 |  |  |
| CCNC(=O)C(=O)CCCCCCOc1ccc(-c2ccccc2)cc1 | 4.9 |  |  |
| CNC(=O)C(=O)CCCCCCC(=O)Nc1nc(-c2ccncc2)cs1 |  | 670 | 2000 |
| CNC(=O)C(=O)CCCCCCC(=O)Nc1nc2ccccc2s1 | 133 | 13000 | 14000 |
| CNC(=O)C(=O)CCCCCCC(=O)Nc1ccc2cc[nH]c2c1 | 18 | 3400 | 4500 |
| CNC(=O)C(=O)CCCCCCC(=O)Nc1nc(-c2ccc(CCN(C)C)cc2)cs1 | 3.1 | 120 | 160 |
| CNC(=O)C(=O)CCCCCCC(=O)Nc1ccccc1 | 338 |  |  |
| CNC(=O)C(=O)CCCCCCC(=O)Nc1cccc(Oc2ccccc2)c1 | 1041 | 35000 | 39000 |
| CNC(=O)C(=O)CCCCCCC(=O)Nc1cccc(-c2ccccc2)c1 | 3.7 |  |  |

More lines, now with the values ahead:

| IC50 [1] [nM] | IC50 (HT-1080) [nM] | IC50 (MDA-MB-435) [nM] | Structure (SMILES) |
| --- | --- | --- | --- |
| 143 |  |  | CNC(=O)C(=O)CCCCCCS(=O)(=O)c1ccc(-c2ccccc2)cc1 |
| 0.082 |  |  | COC(=O)C(=O)CCCCCOc1ccc(-c2ccccc2)cc1 |
| > 50 |  |  | NC(=O)C(=O)CCCCCCOc1ccc(-c2ccccc2)cc1 |
| > 50 |  |  | O=C(O)CNC(=O)C(=O)CCCCCCOc1ccc(-c2ccccc2)cc1 |
| > 1000 |  |  | CNC(=O)C(=O)C#CCCCCOc1ccc(-c2ccccc2)cc1 |
| 526 |  |  | CNC(=O)C(=O)CCCCCCSc1ccc(-c2ccccc2)cc1 |
| > 10000 |  |  | CNC(=O)C(=O)COCCCCOc1ccc(-c2ccccc2)cc1 |
| > 50 |  |  | CN(C)CCNC(=O)C(=O)CCCCCCOc1ccc(-c2ccccc2)cc1 |
| 853 |  |  | CNC(=O)C(=O)CCCCCO/N=C\c1ccc(-c2ccccc2)cc1 |
| 0.062 |  |  | COC(=O)C(=O)CCCCCCOc1ccc(-c2ccccc2)cc1 |
| > 5 |  |  | CN(C)C(=O)C(=O)CCCCCCOc1ccc(-c2ccccc2)cc1 |
| 0.109 |  |  | COC(=O)C(=O)CCCCCCCOc1ccc(-c2ccccc2)cc1 |
| 3.7 |  |  | O=C(O)C(=O)CCCCCCOc1ccc(-c2ccccc2)cc1 |
